In ChEMBL document CHEMBL2094260, “Malaria Box Tuberculosis Screening Data” one finds MIC90, inhibition and CC50 data, which are given here for 44 molecules.

In brackets after ≈: the same amount, converted by molar mass. Where only a bound is given, the exact number is not on record here.

Data set [1] concerns Mycobacterium tuberculosis. Put plainly: MMV: CRC and MIC90 against Mtb (non replicating). The class given is functional.
Data set [2] concerns Mycobacterium tuberculosis. Put plainly: MMV: Screen against Mtb, single point, non replicating, at 25uM. The class given is functional.
A short description of data set [3]: MMV: Cytotoxicity CRC and LD50 against HepG2. The data set is classed as toxicity, cell-based. The following applies: human, HepG2 cells; read-out: LD50 (the source's name).
The test system of data set [4] is Mycobacterium tuberculosis. Put plainly: MMV: CRC and MIC90 against Mtb (replicating). The data set is classed as functional.
Data set [5] deals with Mycobacterium tuberculosis. As to the kind of experiment: MMV: Screen against Mtb, single point, replicating, at 25uM. The data set is classed as functional.

In the case of `OC(CNC1CCCCC1)Cn1c2ccccc2c2ccccc21` (centres undefined), the values for the MIC90 in data set [1] and in data set [4] were over 100 µM and 55.9 µM (≈ 18 µg/mL), respectively. For the same molecule, the values for the inhibition at 25 µM in data set [2] and in data set [5] were 14% and 66.6%, respectively. The CC50 in data set [3] came out at 4.97 µM.
The matching figures for `CC(=O)c1ccc(NC(=O)CSc2nc(-c3ccccc3Cl)ns2)cc1`: over 100 µM, 14 µM (≈ 5.65 µg/mL), 13.4%, 96.2% and 41 µM.
Consider `Clc1ccc2c(N3CCCC3)ccnc2c1`, for which the MIC90 in data set [1] and in data set [4] was over 100 µM in each case. In addition, the inhibition at 25 µM in data set [2] stood at 17.1%; in data set [5], 68.8%. Further, in data set [3], the CC50 was 34.9 µM.
Regarding `Cc1ccc(Nc2nc(NCCO)c3ccccc3n2)cc1C`, the MIC90 in data set [1] stood at 82.6 µM (≈ 25.5 µg/mL); in data set [4], 9.52 µM (≈ 2.94 µg/mL). Besides, the values for the inhibition at 25 µM in data set [2] and in data set [5] were 7.14% and 97.2%, respectively. The CC50 in data set [3] was 5.5 µM.
Regarding `Nc1ccc(-c2nc3cc(Cc4ccc5[nH]c(-c6ccc(N)cc6)nc5c4)ccc3[nH]2)cc1`, the figures for the MIC90 in data set [1] and in data set [4] were over 100 µM and 10.9 µM (≈ 4.69 µg/mL), respectively. The inhibition at 25 µM was determined as 41.4% in data set [2] and 94% in data set [5]. The CC50 in data set [3] worked out at 2.45 µM.
As for `Cc1cc(Nc2cccc(F)c2)nc(NCc2ccccc2)n1`, the MIC90 in data set [1] is over 100 µM; in data set [4] it was 16.4 µM (≈ 5.06 µg/mL). The results for the inhibition at 25 µM in data set [2] and in data set [5] were 5.92% and 98.3%, respectively. Moreover, the CC50 in data set [3] was 7.18 µM.
For the molecule `CC(C)CCNCC(O)Cn1c2ccccc2c2ccccc21` (centres undefined), the MIC90 is over 100 µM in data set [1] and 22.9 µM (≈ 7.11 µg/mL) in data set [4]. Moreover, the inhibition at 25 µM in data set [2] was 16.6%; in data set [5], 83.6%. Further, the CC50 in data set [3] came out at 4.74 µM.
The matching figures for `Cc1ccc(Nc2nc(N)c3ccccc3n2)cc1Cl`: over 100 µM, 24.7 µM (≈ 7.03 µg/mL), 7.17%, 96.6% and 10.9 µM.
The matching figures for `O=C(Nc1ccc(Cl)c(Cl)c1)Nc1ccc(Cl)c(Cl)c1`: 10.3 µM (≈ 3.61 µg/mL), 3.89 µM (≈ 1.36 µg/mL), 99.8%, 92.6% and 6.5 µM.
In the case of `Cc1ccc(Cl)cc1N1CCN(CCCNC(=O)C2CCN(c3nc4ccccc4[nH]3)CC2)CC1`, the results for the MIC90 in data set [1] and in data set [4] were over 100 µM and 39 µM (≈ 19.3 µg/mL), respectively. Further, the values for the inhibition at 25 µM in data set [2] and in data set [5] were 26.9% and 75.7%, respectively. The CC50 in data set [3] was found to be 4.79 µM.
`Nc1ccc(-c2nc3cc(Oc4ccc(Oc5ccc6[nH]c(-c7ccc(N)cc7)nc6c5)cc4)ccc3[nH]2)cc1`: the MIC90 in data set [1] was over 100 µM; in data set [4], 19.2 µM (≈ 10.1 µg/mL). The results for the inhibition at 25 µM in data set [2] and in data set [5] were 11.8% and 98.8%, respectively. For the same molecule, in data set [3], the CC50 is 5.37 µM.
The matching figures for `C[n+]1c2ccccc2nc2ccc(NCCO)cc21`: over 100 µM, 6 µM, 37.7%, 84.9% and 6.65 µM.
Regarding `CCOc1ccc2nc(C)cc(Nc3ccc(N(C)C)cc3)c2c1`, the MIC90 in data set [1] came out at 67.4 µM (≈ 21.7 µg/mL); in data set [4], 38.3 µM (≈ 12.3 µg/mL). Further, the values for the inhibition at 25 µM in data set [2] and in data set [5] were 15.7% and 78%, respectively. Moreover, in data set [3], the CC50 is 7.38 µM.
The matching figures for `Clc1cc(Br)ccc1-c1ccc(CNCC2CCNCC2)o1`: over 100 µM, 29.3 µM (≈ 11.2 µg/mL), 34.2%, 86.5% and 1.78 µM.
As for `CCCCOC(=O)c1ccc(Nc2cc(C)nc3ccc(OC)cc23)cc1`, the MIC90 is over 100 µM in data set [1] and 94.9 µM (≈ 34.6 µg/mL) in data set [4]. Further, the inhibition at 25 µM in data set [2] is 24.7%; in data set [5], 96.5%. The CC50 in data set [3] worked out at 6.93 µM.
For `CCCCCCn1c(=N)n(CC(O)COc2cccc(C)c2)c2ccccc21` (centres undefined), the MIC90 in data set [1] was 27.9 µM (≈ 10.6 µg/mL); in data set [4], 9.69 µM (≈ 3.7 µg/mL). Further, the values for the inhibition at 25 µM in data set [2] and in data set [5] were 31.3% and 98.5%, respectively. The CC50 in data set [3] came out at 3.27 µM.
Turning to `CC1CCN(Cc2ccc(NC(=O)c3cc4ccc5cccnc5c4[nH]3)cc2)CC1`, the values for the MIC90 in data set [1] and in data set [4] were over 100 µM and 33.3 µM (≈ 13.3 µg/mL), respectively. Besides, the figures for the inhibition at 25 µM in data set [2] and in data set [5] were 13.8% and 75.1%, respectively. Besides, in data set [3], the CC50 is 4.42 µM.
The matching figures for `O=C1c2ccc3c4c(ccc(c24)C(=O)N1CCCCO)C(=O)N(CCCCO)C3=O`: 79.1 µM (≈ 32.5 µg/mL), 36.5 µM (≈ 15 µg/mL), 39.6%, 89.3% and 0.904 µM.
The matching figures for `Cc1cc(N(C)C)nc(Nc2ccc(NC(=O)Nc3ccccc3)cc2)n1`: over 100 µM, 19.3 µM (≈ 7 µg/mL), 3.62%, 98.1% and 11.2 µM.
In the case of `Cc1ccc2c(C)nc(Nc3nc(C)cc(-c4ccccc4)n3)nc2c1`, the MIC90 is 57.9 µM (≈ 19.8 µg/mL) in data set [1] and 18.6 µM (≈ 6.35 µg/mL) in data set [4]. The inhibition at 25 µM in data set [2] turned out to be 24.2%; in data set [5], 96.8%. For the same molecule, in data set [3], the CC50 is over 100 µM.
Regarding `Oc1ccc2ccccc2c1CNc1nc2ccccc2[nH]1`, the values for the inhibition at 25 µM in data set [2] and in data set [5] were 35.9% and 76.1%, respectively. Moreover, the CC50 in data set [3] came out at 14.1 µM. In data set [4], this molecule showed an MIC90 of 74.1 µM (≈ 21.4 µg/mL).
Turning to `COc1ccc(-c2cc(=O)oc3c4c(ccc23)OCN(Cc2ccc(F)cc2)C4)cc1`, the values for the MIC90 in data set [1] and in data set [4] were over 100 µM and 37.5 µM (≈ 15.7 µg/mL), respectively. Also, the inhibition at 25 µM was 22.3% in data set [2] and 90.5% in data set [5]. For the same molecule, the CC50 in data set [3] is 40.5 µM.
In the case of `CCN(CC)CCCNc1nc(-c2ccc(Cl)cc2)nc2ccccc12`, the values for the MIC90 in data set [1] and in data set [4] were over 100 µM and 24.7 µM (≈ 9.11 µg/mL), respectively. Moreover, the inhibition at 25 µM came to 17.1% in data set [2] and 95.3% in data set [5]. Also, in data set [3], the CC50 is 2.72 µM.
The matching figures for `O=C(Nc1ccc(F)c(Cl)c1)Nc1ccc(Cl)c(Cl)c1`: 11 µM (≈ 3.67 µg/mL), 4.03 µM (≈ 1.34 µg/mL), 100%, 97.5% and 4.33 µM.
The matching figures for `FC(F)(F)c1cccc(Nc2nc3ccccc3nc2Nc2cccc(C(F)(F)F)c2)c1`: 5.75 µM (≈ 2.58 µg/mL), 3.33 µM (≈ 1.49 µg/mL), 102%, 97.6% and 1.59 µM.
The matching figures for `OC(CNCc1ccccc1)Cn1c2ccccc2c2ccccc21` (centres undefined): over 100 µM, 20.1 µM (≈ 6.64 µg/mL), 14.3%, 90.3% and 5.69 µM.
As to `CCOC(=O)c1cnc2ccc(OC)cc2c1Nc1ccc(N2CCN(C)CC2)cc1`, the MIC90 in data set [1] is over 100 µM; in data set [4], 35.9 µM (≈ 15.1 µg/mL). Also, the inhibition at 25 µM in data set [2] worked out at 31.3%; in data set [5] it was 78.8%. Moreover, the CC50 in data set [3] amounted to 22.8 µM.
The matching figures for `O=C(Nc1cccc(C(F)(F)F)c1)c1cc(Cl)ccc1O`: 3.46 µM (≈ 1.09 µg/mL), 3.87 µM (≈ 1.22 µg/mL), 102%, 95.9% and 0.99 µM.
As to `CCCCCn1c(=N)n(CC(O)COc2cccc(C)c2)c2ccccc21` (centres undefined), the MIC90 was over 100 µM in data set [1] and 23 µM (≈ 8.45 µg/mL) in data set [4]. Besides, the inhibition at 25 µM amounted to 8.77% in data set [2] and 96.5% in data set [5]. In data set [3], the CC50 amounted to 4.92 µM.
On to `Cc1ccc(Nc2nc(-c3ccccn3)cs2)cc1`, for which the MIC90 is over 100 µM in data set [1] and 50.7 µM (≈ 13.6 µg/mL) in data set [4]. In addition, the inhibition at 25 µM in data set [2] came out at 23%; in data set [5], 59.3%.
Regarding `O=C(Nc1nc(-c2ccccn2)cs1)c1ccccc1Br`, the MIC90 in data set [1] amounted to 58.2 µM (≈ 21 µg/mL); in data set [4], 48.7 µM (≈ 17.5 µg/mL). Besides, the inhibition at 25 µM in data set [2] came to 84.5%; in data set [5], 95.3%.
As to `O=C(Nc1ccccc1O)c1ccc(-c2ccc(Cl)cc2Cl)o1`, the inhibition at 25 µM in data set [2] stood at 27.6%; in data set [5], 13.7%.
With `Cc1c(C)n(Cc2ccc(F)cc2)c2ccc(C(=O)NCc3ccco3)cc12`, the inhibition at 25 µM amounted to 11.7% in data set [2] and 69.5% in data set [5]. In addition, in data set [3], the CC50 was over 100 µM.
`Nc1nc(Nc2cccc(F)c2)nc2ccccc12`: the inhibition at 25 µM is 9.12% in data set [2] and 13.4% in data set [5].
Turning to `CCOC(=O)c1cn(CC)c2cc(N3CCCCC3)c(F)cc2c1=O`, the inhibition at 25 µM in data set [2] was found to be 6.27%; in data set [5] it was 45%.
The matching figures for `CCC(=O)Nc1nnc(Cc2ccc(OC)c(OC)c2)s1`: 1.56% and -1.3%.
For `CCN(CC)c1ccc(NC(=O)c2cccs2)cc1`, the inhibition at 25 µM is 13.1% in data set [2] and 4.01% in data set [5].
The matching figures for `O=C(Nc1ccsc1C(=O)NC1CCCCC1)c1ccc(F)cc1`: 20.6% and 3.4%.
For the molecule `COc1ccc(-c2nonc2NC(=O)c2cccc(Cl)c2)cc1OC`, the results for the inhibition at 25 µM in data set [2] and in data set [5] were 15.7% and 9.93%, respectively.
`COc1ccc2nc(C)cc(Nc3ccccc3O)c2c1`: the results for the inhibition at 25 µM in data set [2] and in data set [5] were 7.14% and 13.6%, respectively.
Consider `COc1cc2c3cc1Oc1c(OC)c(OC)cc4c1C(Cc1ccc(O)c(c1)Oc1ccc(cc1)CC3N(C)CC2)N(C)CC4` (centres undefined), for which the inhibition at 25 µM in data set [2] came to 18.5%; in data set [5], 3.53%.
The matching figures for `Oc1c(C(Nc2ccccn2)c2cccc(Oc3ccccc3)c2)ccc2cccnc12` (centres undefined): 11.8% and -15.4%.
Turning to `COc1cc(OC)c(N(C)C(=O)c2cc3c(s2)-c2ccccc2S(=O)(=O)C3)cc1Cl`, the inhibition at 25 µM stood at 6.97% in data set [2] and 38% in data set [5].
`CCOc1ccc(N2C(N)=NC(N)=NC2(C)C)cc1`: the inhibition at 25 µM was 8.77% in data set [2] and -0.705% in data set [5].

By MIC90 is commonly meant an inhibitory concentration at the 90% level, which refers to growth in some studies and to a panel of isolates in others. A low value points to greater potency. One may read the inhibition as the relative decrease from the control value, in per cent.
